In brackets after ≈: the same amount, converted by molar mass.
How the values were obtained:
[1] = tested on: 4T1 murine breast cancer cells; experiment: Example S: in vitro anticancer screen, 4T1 cells, Wst1; assay type: cell-based, mouse; details: Mus musculus, 4T1, 18 h, 18 hr, Wst1; for viability at 1 µM: read-out: 4T1 1 μM, percent of cancer cell survival relative to vehicle treated cells; for viability at 5 µM: read-out: 4T1 5 μM, percent of cancer cell survival relative to vehicle treated cells
Procedure, shortened: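 Read-out is Wst1 absorbance (450 nm, reference 630 nm) after roughly 2 hr dye incubation, giving percent cell survival versus vehicle. Before that, compounds at 1 μM or 5 μM were applied for 18 hr to 4T1 cells plated at 1×10^4 per well.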

[2] = tested on: PC3 human prostate cancer cells; experiment: Example S: in vitro anticancer screen, PC-3 cells, Wst1; assay type: cell-based; details: Homo sapiens, PC-3, approximately 20 hours, Wst1, read-out: PC-3, percent of cancer cell survival relative to vehicle treated cells
Procedure, shortened: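 Values give percent survival relative to vehicle, read by Wst1 absorbance (450/630 nm) after 2 h dye incubation, in triplicate. Cells were seeded at 2×10^4/well and treated about 20 h with compound at 0.4, 0.5 or 2.5 μM, depending on compound.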

[3] = tested on: PC-3 prostate cancer cells; experiment: Example T: sensitisation of PC-3 cells to doxorubicin, oxaliplatin, paclitaxel or vincristine, Wst1; assay type: cell-based, human; details: PC-3 cells, 72 hours; for viability at 0.4 µM: compound 0.4 μM alone; for Doxorubicin 3.5 μM: percent cell survival / Oxaliplatin 100 μM: percent cell survival / Paclitaxel 50 μM: percent cell survival / Vincristine 100 nM: percent cell survival: chemotherapy agent alone normalized to 100%; for viability at 2.5 µM: compound 2.5 μM alone
THP-1 cells = experiment: Example D: LPS-triggered THP-1 cell death assay, acute/5-hour and chronic/48-hour; assay type: cell-based, Human; details: for activity relative to AC in the LPS-triggered THP-1 cell death assay, in words: 0.1 μM, 5-hour and 48-hour time points; for Viable cell percent change, Chronic/48-hour, Mean: 10 ng/ml LPS, 0.1 μM test compound
Procedure: Compounds of the invention were tested at 0.1 μM versus AC in the LPS-triggered THP-1 cell death assay. Both acute/5-hour and chronic/48-hour phases of cell death were assessed. Compounds were screened in batches with DMSO as the negative control and AC as the high activity control.

[4] = tested on: Candida albicans strain 3153; experiment: Example H: Candida albicans growth inhibition (OD 600 nm); assay type: cell-based; details: for MIC: Candida albicans, 3153, 24 hrs at 30° C., YPD, XLfit, read-out: MIC (uM) (99% of inhibition of fungal growth); for IC50: Candida albicans, 3153, read-out: IC50 (uM) (50% inhibition of fungal growth), 24 hrs at 30° C., YPD, XLfit
Procedure: A single colony of Candida Albicans was grown in 50 ml YPD broth overnight (19 hr). The cells were washed with PBS and 3.5×10^4 CFU/ml of C. Albicans (144 μl/well) in YPD medium were plated in 96 well plates. Test compounds were then added to each well with concentration ranged from 5 to 40 μM as final concentrations. The plates were incubated at 30° C. overnight (24 hrs) and OD at 600 nm was read at the end of incubation as an index of yeast cell density.
Part-I: Preparation of Candida albicans Cells • 1. One day prior to the inoculum preparation, pick a single colony of Candida albicans strain 3153 (lot #61794) from the Sabouraud Dextrose Agar plate using the inoculum loop and inoculate into a 250 mL flask containing 50 ml of YPD growth medium • 2. Incubate at 30° C. with shaking at 150 rpm for at least 18 hours with loosened lid to allow air in and facilitate growth. • 3. Examine an aliquot of the culture under a microscope for Candida cell morphology and lack of bacterial contamination; >95% of Candida cells should be blastoconidia. • 4. Transfer 25 ml the overnight culture into a 50-ml plastic disposable centrifuge tube, and centrifuge at 1000×g for 20 min. • 5. Discard the supernatant and wash the pellet with 4 ml of PBS at three times. Vortex and centrifuge, 1000×g for 10 min. • 6. After the third wash, dispense the pellet with 2 ml PBS and vortex. • 7. Make three 1:10 serial dilutions in sterile PBS (10^−1, 10^−2, 10^−3) from the 2 ml cell suspension using 15 ml culture tubes. The final volume in each tube is 5 ml. • 8. […] Make a 1:4 dilution in YPD medium from the 50-fold dilution of 10^−3 cell suspension for testing compounds. • The final C. albicans cell concentration for the test: 3.5×10^4 CFU/ml • 10. Plated 144 ul/well of the above dilution of cell on 96-well plates. Part-II: C. Albicans Growth Inhibition Testing with Compounds • 1. From 10 mM DMSO stock solutions, make serial dilutions of compounds to 0.13, 0.25, 0.40, 0.55, 0.75 and 1.0 mM solutions • 2. Add 6 ul each of diluted compound solutions per well in duplicates. The final concentrations were 0, 5, 10, 16, 22, 30 and 40 micromolar. • 3. Incubated all plates at 30 C for overnight (˜24 hours). • 4. Read absorbance at OD600 for each plate. • 5. Calculate the % inhibition of each compound against the DMSO treated cell.

[5] = Homo sapiens, Wst1, vehicle = 100, read-out: No Chemo: percent cell survival
[6] = compound 0.4 μM + doxorubicin 3.5 μM
[7] = compound 0.4 μM + oxaliplatin 100 μM
[8] = compound 0.4 μM + paclitaxel 50 μM
[9] = compound 0.4 μM + vincristine 100 nM
[10] = compound 2.5 μM + doxorubicin 3.5 μM
[11] = compound 2.5 μM + oxaliplatin 100 μM
[12] = compound 2.5 μM + paclitaxel 50 μM
[13] = compound 2.5 μM + vincristine 100 nM

Row | SMILES | viability at 1 µM [1] | viability at 5 µM [1] | viability at 0.4 µM [2] | viability at 0.4 µM [3, 5] | Doxorubicin 3.5 μM: percent cell survival [3, 6] | Oxaliplatin 100 μM: percent cell survival [3, 7] | Paclitaxel 50 μM: percent cell survival [3, 8] | Vincristine 100 nM: percent cell survival [3, 9] | activity relative to AC in the LPS-triggered THP-1 cell death assay, in words (THP-1 cells) | MIC [4] | IC50 [4] | Viable cell percent change, Chronic/48-hour, Mean (THP-1 cells) | viability at 2.5 µM [2] | viability at 2.5 µM [3, 5] | Doxorubicin 3.5 μM: percent cell survival [3, 10] | Oxaliplatin 100 μM: percent cell survival [3, 11] | Paclitaxel 50 μM: percent cell survival [3, 12] | Vincristine 100 nM: percent cell survival [3, 13] | other results
1 | CCOCCCOCCCCCCCCNc1ccnc2ccccc12 [AJ, N-[8-(3-Ethoxypropoxy)octyl]quinolin-4-amine] | 22.4% | 21.1% | 18.5% | 18.5% | 33.1% | 22.5% | 20.8% | 20.1% | equivalent activity to AC at both the 5-hour and 48-hour time points | 113 µM (≈ 40.7 µg/mL) | 43.2 µM | – | – | – | – | – | – | – | –
2 | c1ccc(OCCCCCCNc2ccnc3ccccc23)cc1 [AR, N-(6-Phenoxyhexyl)quinolin-4-amine] | 25.4% | 47% | 57% | 57% | 22.4% | 24.1% | 54.1% | 24.2% | equivalent activity to AC at both the 5-hour and 48-hour time points | 69.8 µM (≈ 22.4 µg/mL) | 46.1 µM | 28.75% | – | – | – | – | – | – | –
3 | CCCCCCOCCCOCCCCCNc1ccnc2ccccc12 [BB, N-{5-[3-(Hexyloxy)propoxy]pentyl}quinolin-4-amine] | 59.6% | 41.1% | – | – | – | – | – | – | – | 99.7 µM (≈ 37.1 µg/mL) | 50.9 µM | 0.65% | 16.3% | 16.3% | 20.4% | 24.7% | 25% | 17.2% | –
4 | CCCCOCCCCCCCCn1cnc2cnc3ccccc3c21 [BQ, 1-(8-Butoxyoctyl)-1H-imidazo[4,5-c]quinoline] | – | – | – | – | – | – | – | – | – | – | 51.7 µM | 13.70% | 21.4% | 21.4% | 48.5% | 25.1% | 26.9% | 21.4% | –
5 | CCCCCCOCCCCCCCCn1cnc2cnc3ccccc3c21 [GB, 1-[8-(Hexyloxy)octyl]-1H-imidazo[4,5-c]quinoline] | 97% | 22.6% | – | – | – | – | – | – | – | – | – | 19.29% | – | – | – | – | – | – | viability at 1.5 µM ([2]; 1.5 μM): 36.4%; viability at 1.5 µM ([3]; Homo sapiens, compound 1.5 μM alone, Wst1, vehicle = 100, read-out: No Chemo: percent cell survival): 36.4%; Doxorubicin 3.5 μM: percent cell survival ([3]; compound 1.5 μM + doxorubicin 3.5 μM): 52.8%; Oxaliplatin 100 μM: percent cell survival ([3]; compound 1.5 μM + oxaliplatin 100 μM): 76.2%; Paclitaxel 50 μM: percent cell survival ([3]; compound 1.5 μM + paclitaxel 50 μM): 24%; Vincristine 100 nM: percent cell survival ([3]; compound 1.5 μM + vincristine 100 nM): 38.8%
6 | CCCCCCOCCCOCCCCCn1cnc2cnc3ccccc3c21 [GC, 1-{5-[3-(Hexyloxy)propoxy]pentyl}-1H-imidazo[4,5-c]quinoline] | 84.8% | 21.1% | – | – | – | – | – | – | – | – | – | 19.30% | 19.8% | 19.8% | 59.5% | 63.2% | 30.3% | 26.4% | –

— patent publication US20250034139A1, “AMINE COMPOUNDS HAVING ANTI-INFLAMMATORY, ANTIFUNGAL, ANTIPARASITIC, AND ANTICANCER ACTIVITY” (PHARMA CINQ, LLC, priority 2013, published 2025)
